This is an account of results in patent US20120088800A1, “2-(SUBSTITUTED) (ARYLMETHYL, ARYLOXY and ARYLTHIO))-N-(SUBSTITUTED PYRIDIN-2-YL)-2-(SUBSTITUTED ARYL) COMPOUNDS AS SUBTYPE-SELECTIVE MODULATORS OF SPHINGOSINE-1-PHOSPHATE-3 (S1P3) RECEPTORS” (ALLERGAN, INC., priority 2009, published 2012).

For assay [1], the system named is perfused porcine eyes. To be noted: IOVS 45, 2263, 2004; cited from earlier work.
Assay [2] has as its target T1, S1P3 (Homo sapiens, UniProt Q99500).
T1 construct: expressed in transfected cells
Kind of assay: FLIPR calcium assay, cells expressing S1P3 and a G-protein. Type of assay: cell-based. To be noted: for EC50: fluo-4 calcium signal compared to sphingosine 1-phosphate, antagonist mode; for FLIPR (% Antagonism) S1P3: value in parentheses below the EC50, antagonism of sphingosine 1-phosphate signal. An excerpt: (§1) Novel compounds having this general structure were synthesized and tested for sphingosine 1-phosphate receptor (S1P) activity using the FLIPR assay. Cells expressing the receptor of interest (S1P1, S1P2 or S1P3) and a G-protein (Gqi5 or G16) are loaded with fluo-4, a calcium sensitive dye. After removal of excess dye by washing, the cells are placed in the FLIPR TETRA instrument. Baseline fluorescence readings are taken prior to addition the compound to be tested. Agonists will trigger the receptor to interact with the G-protein, leading to an increase in intracellular calcium. The increase in intracellular calcium causes an increase in the fluorescence of the cells, due to the presence of fluo-4. This fluorescence increase is recorded by the FLIPR TETRA. After the calcium transient signal has decreased towards baseline, the standard agonist sphingosine 1-phosphate is added. If the test compound is an antagonist, an initial calcium signal will not be generated and the antagonist will prevent the generation of a calcium signal from sphingosine 1-phosphate. The level of fluorescence is compared to that of sphingosine 1-phosphate, and the EC50 or IC50 of the compound determined by curve fitting.

The target of assay [3] is T2, S1P1 (Homo sapiens, UniProt P21453).
T2 construct: expressed in transfected cells
T2 sequence (P21453 whole entry, species assumed): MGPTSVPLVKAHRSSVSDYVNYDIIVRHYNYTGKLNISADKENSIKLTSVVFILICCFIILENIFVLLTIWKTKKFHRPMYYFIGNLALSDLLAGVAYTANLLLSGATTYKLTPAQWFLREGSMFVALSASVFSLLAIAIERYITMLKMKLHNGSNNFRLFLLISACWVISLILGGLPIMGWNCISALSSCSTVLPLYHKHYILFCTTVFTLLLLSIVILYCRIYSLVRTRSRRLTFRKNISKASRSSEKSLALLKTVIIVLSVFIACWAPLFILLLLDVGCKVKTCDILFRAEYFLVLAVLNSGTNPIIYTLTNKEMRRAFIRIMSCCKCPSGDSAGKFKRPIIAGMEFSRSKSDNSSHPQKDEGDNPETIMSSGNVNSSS
The assay can be described thus: FLIPR calcium assay, cells expressing S1P1 and a G-protein. Type of assay: cell-based. To be noted: fluo-4 calcium signal compared to sphingosine 1-phosphate.
From the text: as §1

Assay [4] deals with T3, S1P2 (Homo sapiens, UniProt O95136).
T3 construct: expressed in transfected cells
T3 sequence (O95136 whole entry, species assumed): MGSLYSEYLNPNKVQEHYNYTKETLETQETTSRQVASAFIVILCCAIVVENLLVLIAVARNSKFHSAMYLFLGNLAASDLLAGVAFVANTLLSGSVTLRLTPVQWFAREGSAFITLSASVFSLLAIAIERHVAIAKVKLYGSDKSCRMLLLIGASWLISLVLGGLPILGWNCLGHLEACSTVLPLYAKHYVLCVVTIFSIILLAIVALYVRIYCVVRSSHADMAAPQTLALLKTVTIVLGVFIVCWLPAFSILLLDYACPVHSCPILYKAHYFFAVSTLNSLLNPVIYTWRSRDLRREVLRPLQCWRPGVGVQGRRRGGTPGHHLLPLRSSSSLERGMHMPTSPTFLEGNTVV
The assay can be described thus: FLIPR calcium assay, cells expressing S1P2 and a G-protein. The following applies: fluo-4 calcium signal compared to sphingosine 1-phosphate. Type of assay: cell-based.
From the text: as §1

Each structure is given as a SMILES string. Counter-ions that a name gives are not always drawn.

T1 sequence (Q99500 whole entry, species assumed): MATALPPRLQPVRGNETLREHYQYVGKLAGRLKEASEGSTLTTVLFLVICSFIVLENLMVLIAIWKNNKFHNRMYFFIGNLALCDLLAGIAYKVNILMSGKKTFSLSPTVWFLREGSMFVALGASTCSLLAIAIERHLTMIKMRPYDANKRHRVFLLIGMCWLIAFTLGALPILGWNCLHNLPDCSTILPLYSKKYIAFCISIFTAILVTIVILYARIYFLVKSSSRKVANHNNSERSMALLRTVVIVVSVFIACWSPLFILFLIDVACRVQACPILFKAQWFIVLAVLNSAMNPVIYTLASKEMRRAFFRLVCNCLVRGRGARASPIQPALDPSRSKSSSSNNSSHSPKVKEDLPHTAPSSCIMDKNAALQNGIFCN

Take `CCCCCCCCCCCCC/C=C/[C@@H](O)[C@@H](N)COP(=O)(O)O` [Example S1P, sphingosine 1-phosphate]: the “decrease of outflow facility” value in assay [1] is reported as above 30%.
For the molecule `O=C(Nc1ccc(Br)cn1)C(Sc1cccc(Cl)c1)c1ccccc1` (stereo not shown) [Example 20, N-(5-bromopyridin-2-yl)-2-(3-chlorophenylthio)-2-phenylacetamide hydrochloride], the EC50 in assay [2] was 166 nM; in assay [3], above 8300 nM; in assay [4], above 8300 nM. Moreover, the “FLIPR (% Antagonism) S1P3” value in assay [2] is “(97) %”.
On to `O=C(Nc1ccc(Cl)cn1)C(Sc1ccc(Br)cc1)c1ccccc1` (stereo not shown) [Example 24, 2-(4-bromophenylthio)-N-(5-chloropyridin-2-yl)-2-phenylacetamide], for which the EC50 is 230 nM in assay [2], above 8300 nM in assay [3] and above 8300 nM in assay [4]. Further, in assay [2], the “FLIPR (% Antagonism) S1P3” value is reported as “(99) %”.
For the molecule `Cc1ccc(SC(C(=O)Nc2ccc(Br)cn2)c2ccc(Cl)cc2)cc1` (stereo not shown) [Example 16, N-(5-bromopyridin-2-yl)-2-(4-chlorophenyl)-2-(p-tolylthio)acetamide hydrochloride], the EC50 in assay [2] is 256 nM; in assay [3], above 8300 nM; in assay [4], above 8300 nM. In addition, the “FLIPR (% Antagonism) S1P3” value in assay [2] is “(100) %”.
Take `O=C(Nc1ccc(Cl)cn1)C(Cc1ccccc1)c1ccccc1` (stereo not shown) [Example 29, N-(5-chloropyridin-2-yl)-2,3-diphenylpropanamide hydrochloride]: the concentration for a half-maximal effect (EC50) in assay [2] is 198 nM; in assay [3] it was above 8300 nM; in assay [4], above 8300 nM. Also, in assay [2], the “FLIPR (% Antagonism) S1P3” value was “(101) %”.
In the case of `O=C(Nc1ccc(Br)cn1)C(Sc1ccc(Cl)cc1)c1ccc(Cl)cc1` (stereo not shown) [Example 22, N-(5-bromopyridin-2-yl)-2-(4-chlorophenyl)-2-(4-chlorophenylthio)acetamide hydrochloride], the values for the EC50 in assay [2], in assay [3] and in assay [4] were 104 nM, above 8300 nM and above 8300 nM, respectively. In addition, in assay [2], the “FLIPR (% Antagonism) S1P3” value is recorded as “(97) %”.
Turning to `Cl.O=C(Nc1ccc(Cl)cn1)C(Oc1ccc(Br)cc1)c1ccc(Cl)cc1` (stereo not shown) [Example 6, 2-(4-bromophenoxy)-2-(4-chlorophenyl)-N-(5-chloropyridin-2-yl)acetamide hydrochloride], the EC50 in assay [2] was 103 nM; in assay [3] it was above 8300 nM; in assay [4], above 8300 nM. The “FLIPR (% Antagonism) S1P3” value in assay [2] was “(97) %”.
Regarding `O=C(Nc1ccc(Cl)cn1)C(Sc1ccc(Cl)cc1)c1ccc(Cl)cc1` (stereo not shown) [Example 23, 2-(4-chlorophenyl)-2-(4-chlorophenylthio)-N-(5-chloropyridin-2-yl)acetamide hydrochloride], the values for the EC50 in assay [2], in assay [3] and in assay [4] were 173 nM, above 8300 nM and above 8300 nM, respectively. The “FLIPR (% Antagonism) S1P3” value in assay [2] was “(97) %”.
As for `Cc1cc(OC(C(=O)Nc2ccc(Cl)cn2)c2ccc(Cl)cc2)ccc1Cl.Cl` (stereo not shown) [Example 1, 2-(4-chloro-3-methylphenoxy)-2-(4-chlorophenyl)-N-(5-chloropyridin-2-yl)acetamide hydrochloride], the EC50 in assay [2] was 128 nM; in assay [3] it was above 8300 nM; in assay [4], above 8300 nM. In assay [2], the “FLIPR (% Antagonism) S1P3” value was “(99) %”.
On to `O=C(Nc1ccc(Br)cn1)C(Cc1ccccc1)c1ccccc1` (stereo not shown) [Example 30, N-(5-bromopyridin-2-yl)-2,3-diphenylpropanamide hydrochloride], for which the figures for the EC50 in assay [2], in assay [3] and in assay [4] were 162 nM, above 8300 nM and above 8300 nM, respectively. Also, in assay [2], the “FLIPR (% Antagonism) S1P3” value is given as “(100) %”.

The term EC50 denotes the midpoint of the concentration-response curve.
